Tested on: 941728-121-R-J1-PDC complex spheroid viability
Assay: Anticancer human tumor 941728-121-R-J1-PDC patient-derived lung adenocarcinoma cell line growth inhibition [RAS]
Details: for IC50: curve of first compound; for viability, T/C: stronger effect = lower value
In short: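 Multi-cell-type spheroids: tumor cells plus HUVEC endothelial cells and mesenchymal stem cells. RAS-pathway inhibitors were combined with targeted agents, each dosed in half-log steps down from clinical Cmax, or from 10 microM when Cmax was unknown.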

[1] = second compound 0.000949 µM, first compound 0.00316 µM
[2] = second compound 0.000949 µM, first compound 0.01 µM
[3] = second compound 0.000949 µM, first compound 0.0316 µM
[4] = second compound 0.000949 µM, first compound 0.1 µM
[5] = second compound 0.000949 µM, first compound 0.316 µM
[6] = second compound 0.000949 µM, first compound 1 µM
[7] = second compound 0.003 µM, first compound 0.00316 µM
[8] = second compound 0.003 µM, first compound 0.01 µM
[9] = second compound 0.003 µM, first compound 0.0316 µM
[10] = second compound 0.003 µM, first compound 0.1 µM
[11] = second compound 0.003 µM, first compound 0.316 µM
[12] = second compound 0.003 µM, first compound 1 µM
[13] = second compound 0.00949 µM, first compound 0.00316 µM
[14] = second compound 0.00949 µM, first compound 0.01 µM
[15] = second compound 0.00949 µM, first compound 0.0316 µM
[16] = second compound 0.00949 µM, first compound 0.1 µM
[17] = second compound 0.00949 µM, first compound 0.316 µM
[18] = second compound 0.00949 µM, first compound 1 µM
[19] = second compound 0.03 µM, first compound 0.00316 µM
[20] = second compound 0.03 µM, first compound 0.01 µM
[21] = second compound 0.03 µM, first compound 0.0316 µM
[22] = second compound 0.03 µM, first compound 0.1 µM
[23] = second compound 0.03 µM, first compound 0.316 µM
[24] = second compound 0.03 µM, first compound 1 µM
[25] = second compound 0.0949 µM, first compound 0.00316 µM
[26] = second compound 0.0949 µM, first compound 0.01 µM
[27] = second compound 0.0949 µM, first compound 0.0316 µM
[28] = second compound 0.0949 µM, first compound 0.1 µM
[29] = second compound 0.0949 µM, first compound 0.316 µM
[30] = second compound 0.0949 µM, first compound 1 µM
[31] = second compound 0.3 µM, first compound 0.00316 µM
[32] = second compound 0.3 µM, first compound 0.01 µM
[33] = second compound 0.3 µM, first compound 0.0316 µM
[34] = second compound 0.3 µM, first compound 0.1 µM
[35] = second compound 0.3 µM, first compound 0.316 µM
[36] = second compound 0.3 µM, first compound 1 µM
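Note: spheroids exposed to compounds for 7 days before readout.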
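Throughout, for viability, T/C: 100% = DMSO vehicle control viability.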

Structure (SMILES): O=C(c1ccc(F)c(F)c1Nc1ccc(I)cc1F)N1CC(O)([C@@H]2CCCCN2)C1 + CCn1c(-c2cc(N3CCN(C)CC3)cnc2C(C)OC)c2c3cc(ccc31)-c1csc(n1)CC(NC(=O)C1CC1C)C(=O)N1CCCC(N1)C(=O)OCC(C)(C)C2
- IC50 (second compound 0.000949 µM): < 3.16 nM
- IC50 (second compound 0.003 µM): < 3.16 nM
- IC50 (second compound 0.00949 µM): < 3.16 nM
- IC50 (second compound 0.03 µM): < 3.16 nM
- IC50 (second compound 0.0949 µM): < 3.16 nM
- IC50 (second compound 0.3 µM): < 3.16 nM
- viability, T/C [1]: 26%
- viability, T/C [2]: 26.8%
- viability, T/C [3]: 15.6%
- viability, T/C [4]: 19.6%
- viability, T/C [5]: 16.4%
- viability, T/C [6]: 8.5%
- viability, T/C [7]: 21.8%
- viability, T/C [8]: 17.2%
- viability, T/C [9]: 15.4%
- viability, T/C [10]: 14.5%
- viability, T/C [11]: 12.3%
- viability, T/C [12]: 13.5%
- viability, T/C [13]: 15.1%
- viability, T/C [14]: 11%
- viability, T/C [15]: 12.7%
- viability, T/C [16]: 12.7%
- viability, T/C [17]: 12%
- viability, T/C [18]: 8.59%
- viability, T/C [19]: 13.4%
- viability, T/C [20]: 12.9%
- viability, T/C [21]: 12.2%
- viability, T/C [22]: 12.7%
- viability, T/C [23]: 8.4%
- viability, T/C [24]: 10.3%
- viability, T/C [25]: 12.6%
- viability, T/C [26]: 12.5%
- viability, T/C [27]: 12.3%
- viability, T/C [28]: 12.4%
- viability, T/C [29]: 11%
- viability, T/C [30]: 10.8%
- viability, T/C [31]: 12%
- viability, T/C [32]: 11.5%
- viability, T/C [33]: 12.7%
- viability, T/C [34]: 11.5%
- viability, T/C [35]: 8.36%
- viability, T/C [36]: 9.92%

Structure (SMILES): CC(=O)OC12COC1CC(O)C1(C)C(=O)C(O)C3=C(C)C(OC(=O)C(O)C(NC(=O)OC(C)(C)C)c4ccccc4)CC(O)(C(OC(=O)c4ccccc4)C21)C3(C)C (centres undefined)
- viability, T/C (compound 0.0316 µM): 51.2% [middle of 4 runs]
- viability, T/C (compound 0.1 µM): 54.9% [middle of 4 runs]
- viability, T/C (compound 0.316 µM): 48.2% [middle of 4 runs]
- viability, T/C (compound 1 µM): 49% [middle of 4 runs]
- viability, T/C (compound 3.16 µM): 47.4% [middle of 4 runs]
- viability, T/C (compound 10 µM): 56.4% [middle of 4 runs]

Structure (SMILES): C=CC(=O)Nc1cc(Nc2nccc(-c3cn(C)c4ccccc34)n2)c(OC)cc1N(C)CCN(C)C + CCn1c(-c2cc(N3CCN(C)CC3)cnc2C(C)OC)c2c3cc(ccc31)-c1csc(n1)CC(NC(=O)C1CC1C)C(=O)N1CCCC(N1)C(=O)OCC(C)(C)C2
- IC50 (second compound 0.000949 µM): < 3.16 nM
- IC50 (second compound 0.003 µM): < 3.16 nM
- IC50 (second compound 0.00949 µM): < 3.16 nM
- IC50 (second compound 0.03 µM): < 3.16 nM
- IC50 (second compound 0.0949 µM): < 3.16 nM
- IC50 (second compound 0.3 µM): < 3.16 nM
- viability, T/C [1]: 29.3%
- viability, T/C [2]: 29.5%
- viability, T/C [3]: 22.1%
- viability, T/C [4]: 23.4%
- viability, T/C [5]: 24.8%
- viability, T/C [6]: 14%
- viability, T/C [7]: 25.4%
- viability, T/C [8]: 20.8%
- viability, T/C [9]: 17.2%
- viability, T/C [10]: 18.8%
- viability, T/C [11]: 15.5%
- viability, T/C [12]: 8.05%
- viability, T/C [13]: 16.4%
- viability, T/C [14]: 15%
- viability, T/C [15]: 14.4%
- viability, T/C [16]: 14.4%
- viability, T/C [17]: 13.7%
- viability, T/C [18]: 9.82%
- viability, T/C [19]: 15.8%
- viability, T/C [20]: 14.8%
- viability, T/C [21]: 15.7%
- viability, T/C [22]: 14.6%
- viability, T/C [23]: 10.7%
- viability, T/C [24]: 12%
- viability, T/C [25]: 12.9%
- viability, T/C [26]: 14.7%
- viability, T/C [27]: 14.6%
- viability, T/C [28]: 16.5%
- viability, T/C [29]: 10.3%
- viability, T/C [30]: 13.9%
- viability, T/C [31]: 13.1%
- viability, T/C [32]: 14.1%
- viability, T/C [33]: 15%
- viability, T/C [34]: 12.4%
- viability, T/C [35]: 10.7%
- viability, T/C [36]: 11.6%

Structure (SMILES): C=CC(=O)N1CCN(c2nc(OCC3CCCN3C)nc3c(F)c(-c4nc(N)cc(C)c4C(F)(F)F)c(Cl)cc23)C(C)C1 (centres undefined) + CCn1c(-c2cc(N3CCN(C)CC3)cnc2C(C)OC)c2c3cc(ccc31)-c1csc(n1)CC(NC(=O)C1CC1C)C(=O)N1CCCC(N1)C(=O)OCC(C)(C)C2
- IC50 (second compound 0.000949 µM): < 3.16 nM
- IC50 (second compound 0.003 µM): < 3.16 nM
- IC50 (second compound 0.00949 µM): < 3.16 nM
- IC50 (second compound 0.03 µM): < 3.16 nM
- IC50 (second compound 0.0949 µM): < 3.16 nM
- IC50 (second compound 0.3 µM): < 3.16 nM
- viability, T/C [1]: 20.1%
- viability, T/C [2]: 19.7%
- viability, T/C [3]: 14.8%
- viability, T/C [4]: 18.7%
- viability, T/C [5]: 20.2%
- viability, T/C [6]: 16.2%
- viability, T/C [7]: 16.9%
- viability, T/C [8]: 15.7%
- viability, T/C [9]: 14.5%
- viability, T/C [10]: 17.2%
- viability, T/C [11]: 19.6%
- viability, T/C [12]: 14.6%
- viability, T/C [13]: 17.3%
- viability, T/C [14]: 16.4%
- viability, T/C [15]: 17.7%
- viability, T/C [16]: 18%
- viability, T/C [17]: 15.6%
- viability, T/C [18]: 14.8%
- viability, T/C [19]: 17.7%
- viability, T/C [20]: 18.3%
- viability, T/C [21]: 17.5%
- viability, T/C [22]: 16.3%
- viability, T/C [23]: 14%
- viability, T/C [24]: 17.8%
- viability, T/C [25]: 15.6%
- viability, T/C [26]: 16.7%
- viability, T/C [27]: 16.5%
- viability, T/C [28]: 17.7%
- viability, T/C [29]: 14.9%
- viability, T/C [30]: 19.4%
- viability, T/C [31]: 17%
- viability, T/C [32]: 17.2%
- viability, T/C [33]: 17.1%
- viability, T/C [34]: 14.5%
- viability, T/C [35]: 18.5%
- viability, T/C [36]: 18.2%

Structure (SMILES): CC(C)n1nc(-c2ccc3oc(N)nc3c2)c2c(N)ncnc21 + CCn1c(-c2cc(N3CCN(C)CC3)cnc2C(C)OC)c2c3cc(ccc31)-c1csc(n1)CC(NC(=O)C1CC1C)C(=O)N1CCCC(N1)C(=O)OCC(C)(C)C2
- IC50 (second compound 0.000949 µM): < 0.316 nM
- IC50 (second compound 0.003 µM): < 0.316 nM
- IC50 (second compound 0.00949 µM): < 0.316 nM
- IC50 (second compound 0.03 µM): < 0.316 nM
- IC50 (second compound 0.0949 µM): < 0.316 nM
- IC50 (second compound 0.3 µM): < 0.316 nM
- viability, T/C (second compound 0.000949 µM, first compound 0.000316 µM): 25.5%
- viability, T/C (second compound 0.000949 µM, first compound 0.001 µM): 27.6%
- viability, T/C [1]: 18.6%
- viability, T/C [2]: 20.2%
- viability, T/C [3]: 16.9%
- viability, T/C [4]: 11.1%
- viability, T/C (second compound 0.003 µM, first compound 0.000316 µM): 24.6%
- viability, T/C (second compound 0.003 µM, first compound 0.001 µM): 20.8%
- viability, T/C [7]: 16%
- viability, T/C [8]: 14.4%
- viability, T/C [9]: 10.9%
- viability, T/C [10]: 8.48%
- viability, T/C (second compound 0.00949 µM, first compound 0.000316 µM): 17.6%
- viability, T/C (second compound 0.00949 µM, first compound 0.001 µM): 16%
- viability, T/C [13]: 16.3%
- viability, T/C [14]: 11.6%
- viability, T/C [15]: 8.78%
- viability, T/C [16]: 5.45%
- viability, T/C (second compound 0.03 µM, first compound 0.000316 µM): 13.4%
- viability, T/C (second compound 0.03 µM, first compound 0.001 µM): 14.6%
- viability, T/C [19]: 13.4%
- viability, T/C [20]: 10.7%
- viability, T/C [21]: 6.44%
- viability, T/C [22]: 6.86%
- viability, T/C (second compound 0.0949 µM, first compound 0.000316 µM): 12.7%
- viability, T/C (second compound 0.0949 µM, first compound 0.001 µM): 14.2%
- viability, T/C [25]: 12.8%
- viability, T/C [26]: 11.6%
- viability, T/C [27]: 6.3%
- viability, T/C [28]: 6.4%
- viability, T/C (second compound 0.3 µM, first compound 0.000316 µM): 13.4%
- viability, T/C (second compound 0.3 µM, first compound 0.001 µM): 13.9%
- viability, T/C [31]: 12.9%
- viability, T/C [32]: 11.2%
- viability, T/C [33]: 7.62%
- viability, T/C [34]: 7.03%

Source: PubChem BioAssay AID2060896 (Molecular Pharmacology Branch, DTP, NCI, 2025)
